Assay results reported in publication PMC7998658, “Phloridzin Acts as an Inhibitor of Protein-Tyrosine Phosphatase MEG2 Relevant to Insulin Resistance” (Molecules, 2021).

What was measured:
[1] = target: T1, PTP-MEG2 (megakaryocyte protein tyrosine phosphatase 2, PTPN9) (Homo sapiens, UniProt P43378); assay: SPR on immobilized purified PTP-MEG2; also DiFMUP enzyme inhibition, IC50 =[…], slow-binding
T1 sequence (P43378 1-593): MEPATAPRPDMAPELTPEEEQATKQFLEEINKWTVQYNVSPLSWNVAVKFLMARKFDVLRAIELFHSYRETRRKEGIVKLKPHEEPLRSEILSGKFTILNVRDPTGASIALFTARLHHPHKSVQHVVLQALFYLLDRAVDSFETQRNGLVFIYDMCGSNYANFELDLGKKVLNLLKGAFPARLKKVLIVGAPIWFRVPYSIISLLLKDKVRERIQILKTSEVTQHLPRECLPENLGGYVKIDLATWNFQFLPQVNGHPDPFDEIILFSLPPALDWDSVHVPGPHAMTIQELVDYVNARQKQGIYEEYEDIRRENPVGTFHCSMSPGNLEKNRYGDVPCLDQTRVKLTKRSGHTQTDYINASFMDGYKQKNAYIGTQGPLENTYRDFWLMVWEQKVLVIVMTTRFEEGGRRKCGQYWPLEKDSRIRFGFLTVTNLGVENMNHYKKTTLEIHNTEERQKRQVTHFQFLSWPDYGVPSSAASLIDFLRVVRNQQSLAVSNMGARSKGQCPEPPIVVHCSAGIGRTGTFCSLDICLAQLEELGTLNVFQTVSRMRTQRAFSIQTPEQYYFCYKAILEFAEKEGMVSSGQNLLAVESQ

[2] = substrate: Cc1cc(=O)oc2c(F)c(OP(=O)(O)O)c(F)cc12; assay: fluorogenic substrate hydrolysis by purified enzyme; Km from Lineweaver-Burk plots; type: biochemical, Homo sapiens
Experimental: fluorogenic substrate hydrolysis by purified enzyme; Km from Lineweaver-Burk plots on PTP-MEG2 (megakaryocyte protein tyrosine phosphatase 2, PTPN9) | kinetic constants of PTP-MEG2 were determined using DiFMUP as a fluorogenic PTP substrate

## O=C(CCc1ccc(O)cc1)c1c(O)cc(O)cc1O[C@@H]1O[C@H](CO)[C@@H](O)[C@H](O)[C@H]1O [phloridzin]
[1]
  Kd: 4.66 µM

B1: PTP-MEG2 (megakaryocyte protein tyrosine phosphatase 2, PTPN9) (Homo sapiens) (protein)
chain: MEPATAPRPDMAPELTPEEEQATKQFLEEINKWTVQYNVSPLSWNVAVKFLMARKFDVLRAIELFHSYRETRRKEGIVKLKPHEEPLRSEILSGKFTILNVRDPTGASIALFTARLHHPHKSVQHVVLQALFYLLDRAVDSFETQRNGLVFIYDMCGSNYANFELDLGKKVLNLLKGAFPARLKKVLIVGAPIWFRVPYSIISLLLKDKVRERIQILKTSEVTQHLPRECLPENLGGYVKIDLATWNFQFLPQVNGHPDPFDEIILFSLPPALDWDSVHVPGPHAMTIQELVDYVNARQKQGIYEEYEDIRRENPVGTFHCSMSPGNLEKNRYGDVPCLDQTRVKLTKRSGHTQTDYINASFMDGYKQKNAYIGTQGPLENTYRDFWLMVWEQKVLVIVMTTRFEEGGRRKCGQYWPLEKDSRIRFGFLTVTNLGVENMNHYKKTTLEIHNTEERQKRQVTHFQFLSWPDYGVPSSAASLIDFLRVVRNQQSLAVSNMGARSKGQCPEPPIVVHCSAGIGRTGTFCSLDICLAQLEELGTLNVFQTVSRMRTQRAFSIQTPEQYYFCYKAILEFAEKEGMVSSGQNLLAVESQ
[2]
  Km: 163.1 µM
